The values that follow come from the NIST ThermoML archive (doi:10.1016/j.fluid.2016.02.004).

Numbers after ± are expanded uncertainties.

This data set is described as follows: activity coefficient (dimensionless); of the first substance listed, at infinite dilution; xn = mol fraction of the nth substance listed. As to conditions: Liquid, Chromatography, x1 = 0.

Turning to `c1ccccc1` [benzene] + CCCCn1cc[n+](C)c1.N#CN=C=[N-], the activity coefficient (318.15 K) was 1.87 ± 0.13; the activity coefficient (328.15 K) came out at 1.95 ± 0.13; the activity coefficient (338.15 K) is 2.03 ± 0.14; the activity coefficient (348.15 K) stood at 2.11 ± 0.14; the activity coefficient (358.15 K) was found to be 2.19 ± 0.15; the activity coefficient (368.15 K) came to 2.28 ± 0.16.

As to `CCOC(C)(C)C` [2-ethoxy-2-methylpropane] + CCCCn1cc[n+](C)c1.N#CN=C=[N-], the activity coefficient worked out at 18.1 ± 1.2 (318.15 K); 18.4 ± 1.3 (328.15 K); 18.7 ± 1.3 (338.15 K); 19.1 ± 1.3 (348.15 K); 19.3 ± 1.3 (358.15 K); 19.7 ± 1.3 (368.15 K).

With `CCC(=O)OC` [methyl propanoate] + CCCCn1cc[n+](C)c1.N#CN=C=[N-], the activity coefficient runs as follows: (318.15 K) 2.36 ± 0.16; (328.15 K) 2.47 ± 0.17; (338.15 K) 2.59 ± 0.18; (348.15 K) 2.7 ± 0.18; (358.15 K) 2.81 ± 0.19; (368.15 K) 2.92 ± 0.2.

As for `COC(C)(C)C` [2-methoxy-2-methylpropane] + CCCCn1cc[n+](C)c1.N#CN=C=[N-], the activity coefficient (318.15 K) was determined as 7.13 ± 0.49; the activity coefficient (328.15 K) stood at 7.47 ± 0.51; the activity coefficient (338.15 K) turned out to be 7.8 ± 0.53; the activity coefficient (348.15 K) stood at 8.14 ± 0.56; the activity coefficient (358.15 K) came out at 8.46 ± 0.58; the activity coefficient (368.15 K) was found to be 8.8 ± 0.6.

Take `CCC(C)(C)OC` [2-methoxy-2-methylbutane] + CCCCn1cc[n+](C)c1.N#CN=C=[N-]: the activity coefficient is 10.7 ± 0.7 (318.15 K); 11.1 ± 0.8 (328.15 K); 11.5 ± 0.8 (338.15 K); 11.8 ± 0.8 (348.15 K); 12.2 ± 0.8 (358.15 K); 12.5 ± 0.9 (368.15 K).

With `C=CCCCCC` [1-heptene] + CCCCn1cc[n+](C)c1.N#CN=C=[N-], the activity coefficient by setting is: (318.15 K) 39 ± 2.7; (328.15 K) 38.5 ± 2.6; (338.15 K) 38.1 ± 2.6; (348.15 K) 37.7 ± 2.6; (358.15 K) 37.3 ± 2.6; (368.15 K) 37 ± 2.5.

As for `CCOCC` [diethyl ether] + CCCCn1cc[n+](C)c1.N#CN=C=[N-], the activity coefficient worked out at 6.88 ± 0.47 (318.15 K); 7.11 ± 0.48 (328.15 K); 7.32 ± 0.5 (338.15 K); 7.53 ± 0.51 (348.15 K); 7.74 ± 0.53 (358.15 K); 7.95 ± 0.54 (368.15 K).

As for `C=CCCCCCC` [oct-1-ene] + CCCCn1cc[n+](C)c1.N#CN=C=[N-], the activity coefficient was determined as 60.1 ± 4.1 (318.15 K); 58.9 ± 4 (328.15 K); 58 ± 4 (338.15 K); 57 ± 3.9 (348.15 K); 56.2 ± 3.8 (358.15 K); 55.5 ± 3.8 (368.15 K).

As to `C#CCCCC` [1-hexyne] + CCCCn1cc[n+](C)c1.N#CN=C=[N-], the activity coefficient came to 5.43 ± 0.37 (318.15 K); 5.76 ± 0.39 (328.15 K); 6.12 ± 0.42 (338.15 K); 6.49 ± 0.44 (348.15 K); 6.85 ± 0.47 (358.15 K); 7.23 ± 0.49 (368.15 K).

Take `CCCCCCCC` [octane] + CCCCn1cc[n+](C)c1.N#CN=C=[N-]: the activity coefficient was found to be 137 ± 9 (318.15 K); 129 ± 9 (328.15 K); 123 ± 8 (338.15 K); 116 ± 8 (348.15 K); 111 ± 8 (358.15 K); 106 ± 7 (368.15 K).

As for `CCC(C)O` (stereo unspecified) [butan-2-ol] + CCCCn1cc[n+](C)c1.N#CN=C=[N-], the activity coefficient was 1.13 ± 0.07 (318.15 K); 1.14 ± 0.07 (328.15 K); 1.16 ± 0.07 (338.15 K); 1.17 ± 0.07 (348.15 K); 1.18 ± 0.08 (358.15 K); 1.19 ± 0.08 (368.15 K).

For `CCCCC` [pentane] + CCCCn1cc[n+](C)c1.N#CN=C=[N-], the activity coefficient reads like this: (318.15 K) 41.7 ± 2.9; (328.15 K) 40.1 ± 2.7; (338.15 K) 38.6 ± 2.6; (348.15 K) 37.3 ± 2.6; (358.15 K) 36.1 ± 2.5; (368.15 K) 34.9 ± 2.4.

For `CCCCO` [butan-1-ol] + CCCCn1cc[n+](C)c1.N#CN=C=[N-], the activity coefficient reads like this: (318.15 K) 1.1 ± 0.07; (328.15 K) 1.11 ± 0.07; (338.15 K) 1.12 ± 0.07; (348.15 K) 1.13 ± 0.07; (358.15 K) 1.14 ± 0.07; (368.15 K) 1.15 ± 0.07.

For the compound `CCCO` [propan-1-ol] + CCCCn1cc[n+](C)c1.N#CN=C=[N-], the activity coefficient was 0.826 ± 0.053 (318.15 K); 0.835 ± 0.054 (328.15 K); 0.844 ± 0.054 (338.15 K); 0.853 ± 0.055 (348.15 K); 0.862 ± 0.055 (358.15 K); 0.871 ± 0.056 (368.15 K).

With `C=C(C)c1ccccc1` [(1-methylethenyl)benzene] + CCCCn1cc[n+](C)c1.N#CN=C=[N-], the activity coefficient reads like this: (318.15 K) 3.3 ± 0.2; (328.15 K) 3.53 ± 0.24; (338.15 K) 3.79 ± 0.26; (348.15 K) 4.02 ± 0.27; (358.15 K) 4.26 ± 0.29; (368.15 K) 4.51 ± 0.31.

For the compound `CCCC=O` [butanal] + CCCCn1cc[n+](C)c1.N#CN=C=[N-], the activity coefficient by setting is: (318.15 K) 1.61 ± 0.11; (328.15 K) 1.67 ± 0.11; (338.15 K) 1.74 ± 0.12; (348.15 K) 1.8 ± 0.12; (358.15 K) 1.87 ± 0.13; (368.15 K) 1.93 ± 0.13.

For the compound `C=Cc1ccccc1` [styrene] + CCCCn1cc[n+](C)c1.N#CN=C=[N-], the activity coefficient came out at 2.15 ± 0.15 (318.15 K); 2.28 ± 0.16 (328.15 K); 2.41 ± 0.16 (338.15 K); 2.53 ± 0.17 (348.15 K); 2.65 ± 0.18 (358.15 K); 2.78 ± 0.19 (368.15 K).

Turning to `Cc1ccc(C)cc1` [1,4-dimethylbenzene] + CCCCn1cc[n+](C)c1.N#CN=C=[N-], the activity coefficient is 4.44 ± 0.3 (318.15 K); 4.62 ± 0.31 (328.15 K); 4.82 ± 0.33 (338.15 K); 5 ± 0.34 (348.15 K); 5.18 ± 0.35 (358.15 K); 5.37 ± 0.37 (368.15 K).

Take `CCc1ccccc1` [ethylbenzene] + CCCCn1cc[n+](C)c1.N#CN=C=[N-]: the activity coefficient amounted to 4.78 ± 0.33 (318.15 K); 4.89 ± 0.33 (328.15 K); 5.07 ± 0.35 (338.15 K); 5.19 ± 0.35 (348.15 K); 5.33 ± 0.36 (358.15 K); 5.55 ± 0.38 (368.15 K).

In the case of `C=CCCCCCCCC` [1-decene] + CCCCn1cc[n+](C)c1.N#CN=C=[N-], the activity coefficient by setting is: (318.15 K) 134 ± 9; (328.15 K) 128 ± 9; (338.15 K) 123 ± 8; (348.15 K) 119 ± 8; (358.15 K) 115 ± 8; (368.15 K) 111 ± 8.

Consider `CCOC(C)=O` [ethyl acetate] + CCCCn1cc[n+](C)c1.N#CN=C=[N-], for which the activity coefficient reads like this: (318.15 K) 2.57 ± 0.17; (328.15 K) 2.68 ± 0.18; (338.15 K) 2.79 ± 0.19; (348.15 K) 2.91 ± 0.2; (358.15 K) 3 ± 0.2; (368.15 K) 3.11 ± 0.21.
